Key:
[1] = target: T1, A1 adenosine receptor (A1AR) (Homo sapiens, UniProt P30542); assay: A1AR agonist radioligand binding assay; conditions: compound 10 μM, [3H]CCPA 1 nM, transfected CHO cell membranes
T1 sequence (P30542 1-326): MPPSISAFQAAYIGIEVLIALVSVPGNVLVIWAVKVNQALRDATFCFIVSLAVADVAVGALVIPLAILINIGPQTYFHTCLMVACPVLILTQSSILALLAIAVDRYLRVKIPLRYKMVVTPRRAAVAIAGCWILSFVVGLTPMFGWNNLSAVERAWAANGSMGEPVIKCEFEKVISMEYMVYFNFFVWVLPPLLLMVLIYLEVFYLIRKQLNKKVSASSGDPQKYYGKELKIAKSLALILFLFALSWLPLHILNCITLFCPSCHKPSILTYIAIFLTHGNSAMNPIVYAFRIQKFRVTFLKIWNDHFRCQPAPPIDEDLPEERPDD

Dam = target: T2, Dam (Escherichia coli, UniProt P0AEE8); format: biochemical
T2 sequence (P0AEE8 1-278): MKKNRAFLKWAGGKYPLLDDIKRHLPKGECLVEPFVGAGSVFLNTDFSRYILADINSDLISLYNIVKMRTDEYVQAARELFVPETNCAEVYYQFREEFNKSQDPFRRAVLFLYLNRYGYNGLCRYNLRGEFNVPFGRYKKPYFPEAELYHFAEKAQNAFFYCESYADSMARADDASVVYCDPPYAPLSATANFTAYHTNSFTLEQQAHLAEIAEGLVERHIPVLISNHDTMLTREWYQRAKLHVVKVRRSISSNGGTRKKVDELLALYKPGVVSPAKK

MettL5-Trm112 = MettL5-Trm112 (Homo sapiens, UniProt Q9NRN9); format: biochemical
CamA = target: T3, CamA (Clostridioides difficile, UniProt Q183J3); assay: Isothermal titration calorimetry; format: binding
T3 sequence (Q183J3 1-577): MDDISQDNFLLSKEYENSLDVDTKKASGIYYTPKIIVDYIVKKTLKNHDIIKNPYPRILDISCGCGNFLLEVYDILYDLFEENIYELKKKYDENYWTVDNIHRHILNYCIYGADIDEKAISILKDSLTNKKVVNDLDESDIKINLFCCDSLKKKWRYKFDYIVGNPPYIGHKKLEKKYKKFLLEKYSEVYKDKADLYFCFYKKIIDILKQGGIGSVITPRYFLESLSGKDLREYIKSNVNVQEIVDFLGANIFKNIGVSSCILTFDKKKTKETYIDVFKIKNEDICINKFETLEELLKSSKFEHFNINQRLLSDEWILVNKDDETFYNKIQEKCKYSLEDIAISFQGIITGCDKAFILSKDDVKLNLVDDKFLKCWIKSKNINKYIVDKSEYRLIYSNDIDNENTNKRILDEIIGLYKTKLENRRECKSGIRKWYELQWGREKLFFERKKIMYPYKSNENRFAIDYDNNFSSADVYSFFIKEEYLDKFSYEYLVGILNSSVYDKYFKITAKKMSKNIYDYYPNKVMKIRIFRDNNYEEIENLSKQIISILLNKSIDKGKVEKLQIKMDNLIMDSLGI

Chain of MettL5-Trm112 (Q9NRN9 whole entry): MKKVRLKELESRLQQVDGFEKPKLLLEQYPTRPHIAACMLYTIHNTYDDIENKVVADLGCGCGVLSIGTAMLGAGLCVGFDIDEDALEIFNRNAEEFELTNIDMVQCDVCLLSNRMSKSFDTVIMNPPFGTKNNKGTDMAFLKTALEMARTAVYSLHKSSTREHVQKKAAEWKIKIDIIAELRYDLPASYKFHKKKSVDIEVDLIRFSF
Chain of MettL5-Trm112 (Q9UI30 whole entry partner): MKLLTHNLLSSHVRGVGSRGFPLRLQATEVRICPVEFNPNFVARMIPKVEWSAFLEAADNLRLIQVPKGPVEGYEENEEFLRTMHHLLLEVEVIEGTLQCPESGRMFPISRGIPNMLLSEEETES

| SMILES | inhibition of control radioligand specific binding, A1AR [1] | inhibition of Dam (Dam) | inhibition of MettL5-Trm112 (MettL5-Trm112) | lower KD value, fold (CamA; compared to compound 15) | Kd (CamA; KD ± SD, ITC, 25 °C) | KD improved, fold (CamA; from that of compound 37) |
| --- | --- | --- | --- | --- | --- | --- |
| OC[C@H]1O[C@@H](n2cnc3c(NCCCc4ccc(O)cc4)ncnc32)[C@H](O)[C@@H]1O [Compound 16, (2R,3S,4R,5R)-2-(Hydroxymethyl)-5-(6-((3-(4-hydroxyphenyl)propyl)amino)-9H-purin-9-yl)tetrahydrofuran-3,4-diol] | minimal inhibition of specific binding | none of them showed any significant inhibition | none of them showed any significant inhibition | ~6.5 X |  |  |
| CC(C)(C)OC(=O)N1CCC(CCCNc2ncnc3c2ncn3[C@@H]2O[C@H](CO)[C@@H](O)[C@H]2O)CC1 [Compound 39, tert-Butyl-4-(3-((9-((2R,3R,4S,5R)-3,4-dihydroxy-5-(hydroxymethyl)tetrahydrofuran-2-yl)-9H-purin-6-yl)amino)propyl)piperidine-1-carboxylate] | minimal inhibition of specific binding | none of them showed any significant inhibition | none of them showed any significant inhibition |  | ~200 nM | ~8 × |
